According to PubChem BioAssay AID1259407 (Chemical Carcinogenesis Research Information System (CCRIS), 2018):
Calls of active or inactive are those of the source. The rule behind the calls is not given here.

Test system: CCRIS mutagenicity, Ames/micronucleus/aberration tests
Test: CCRIS mutagenicity studies
[1] = Test System: AMES SALMONELLA TYPHIMURIUM, Strain/Indicator: TA98, Metabolic Activation: NONE, Method: STANDARD PLATE
[2] = Test System: AMES SALMONELLA TYPHIMURIUM, Strain/Indicator: TA98, Metabolic Activation: RAT, LIVER, S-9, AROCLOR 1254, Method: STANDARD PLATE
[3] = Test System: AMES SALMONELLA TYPHIMURIUM, Strain/Indicator: TA100, Metabolic Activation: NONE, Method: STANDARD PLATE
[4] = Test System: AMES SALMONELLA TYPHIMURIUM, Strain/Indicator: TA100, Metabolic Activation: RAT, LIVER, S-9, AROCLOR 1254, Method: STANDARD PLATE
[5] = Test System: AMES SALMONELLA TYPHIMURIUM, Strain/Indicator: TA1538, Metabolic Activation: NONE, Method: STANDARD PLATE
[6] = Test System: AMES SALMONELLA TYPHIMURIUM, Strain/Indicator: TA1538, Metabolic Activation: RAT, LIVER, S-9, AROCLOR 1254, Method: STANDARD PLATE
[7] = Test System: AMES SALMONELLA TYPHIMURIUM, Strain/Indicator: TA100, Metabolic Activation: NONE, Method: PREINCUBATION
[8] = Test System: AMES SALMONELLA TYPHIMURIUM, Strain/Indicator: TA98, Metabolic Activation: NONE, Method: PREINCUBATION
[9] = Test System: AMES SALMONELLA TYPHIMURIUM, Strain/Indicator: TA98, Metabolic Activation: RAT, LIVER, S-9, PCB, Method: PREINCUBATION
[10] = Test System: AMES SALMONELLA TYPHIMURIUM, Strain/Indicator: TA100, Metabolic Activation: RAT, LIVER, S-9, PCB, Method: PREINCUBATION

In the case of `CN(C)CCCCl`, the mutagenic call (Test System: AMES SALMONELLA TYPHIMURIUM, Strain/Indicator: TA98, Metabolic Activation: HAMSTER, LIVER, S-9, AROCLOR 1254, Method: STANDARD PLATE) was “inactive; negative”, the mutagenic call [1] was “inactive; negative” and the mutagenic call [2] was “inactive; negative”. The mutagenic call (Test System: AMES SALMONELLA TYPHIMURIUM, Strain/Indicator: TA100, Metabolic Activation: HAMSTER, LIVER, S-9, AROCLOR 1254, Method: STANDARD PLATE) was “active; positive”, the mutagenic call [3] was “active; positive” and the mutagenic call [4] was “active; positive”. The mutagenic call (Test System: MOUSE LYMPHOMA, Strain/Indicator: L5178Y (TK+/TK-), Metabolic Activation: NONE, Method: SUSPENSION/PLATE) was “inactive; positive. reevaluation of results: negative” and the mutagenic call (Test System: MOUSE LYMPHOMA, Strain/Indicator: L5178Y (TK+/TK-), Metabolic Activation: RAT, LIVER, S-9, AROCLOR 1254, Method: SUSPENSION/PLATE) was “active; positive. reevaluation of results: inconclusive”.

For `Nc1c(S(=O)(=O)O)cc(NC2CCCCC2)c2c1C(=O)c1ccccc1C2=O`, the mutagenic call [1] was “inactive; negative”, the mutagenic call [2] was “inactive; negative” and the mutagenic call [3] was “inactive; negative”. The mutagenic call [4] was “inactive; negative”, the mutagenic call (Test System: AMES SALMONELLA TYPHIMURIUM, Strain/Indicator: TA1535, Metabolic Activation: NONE, Method: STANDARD PLATE) was “inactive; negative” and the mutagenic call (Test System: AMES SALMONELLA TYPHIMURIUM, Strain/Indicator: TA1535, Metabolic Activation: RAT, LIVER, S-9, AROCLOR 1254, Method: STANDARD PLATE) was “inactive; negative”. For the same compound, the mutagenic call (Test System: AMES SALMONELLA TYPHIMURIUM, Strain/Indicator: TA1537, Metabolic Activation: NONE, Method: STANDARD PLATE) was “inactive; negative”, the mutagenic call (Test System: AMES SALMONELLA TYPHIMURIUM, Strain/Indicator: TA1537, Metabolic Activation: RAT, LIVER, S-9, AROCLOR 1254, Method: STANDARD PLATE) was “inactive; negative” and the mutagenic call [5] was “inactive; negative”. The mutagenic call [6] was “inactive; negative”.

In the case of `c1cc2ccc3nc4ccccc4c4ccc(c1)c2c34`, the mutagenic call (Test System: AMES SALMONELLA TYPHIMURIUM, Strain/Indicator: TA98, Metabolic Activation: NONE) was “inactive; negative”, the mutagenic call (Test System: AMES SALMONELLA TYPHIMURIUM, Strain/Indicator: TA98, Metabolic Activation: S-9) was “active; positive” and the mutagenic call (Test System: AMES SALMONELLA TYPHIMURIUM, Strain/Indicator: TA100, Metabolic Activation: NONE) was “inactive; negative”. The mutagenic call (Test System: AMES SALMONELLA TYPHIMURIUM, Strain/Indicator: TA100, Metabolic Activation: S-9) was “active; positive”.

With `CC1(c2ccc(Br)cc2)CO1` (stereo not given) the mutagenic call [7] was “inactive; negative”.

In the case of `C=C(C)CN(CC)c1c([N+](=O)[O-])cc(C(F)(F)F)cc1[N+](=O)[O-]`, the mutagenic call (End Point: In vitro chromasomal aberrations, Test System: Chinese hamster ovary (CHO) cells, Metabolic Activation: None) was “inactive; negative”, the mutagenic call (Test System: Ames Salmonella typhimurium, Strain/Indicator: TA98, Metabolic Activation: None, Method: Plate incorporation) was “inactive; negative” and the mutagenic call (Test System: Ames Salmonella typhimurium, Strain/Indicator: TA98, Metabolic Activation: Rat, Liver, S-9, Aroclor, Method: Plate incorporation) was “inactive; negative”. The mutagenic call (Test System: Ames Salmonella typhimurium, Strain/Indicator: TA100, Metabolic Activation: None, Method: Plate incorporation) was “inactive; negative”, the mutagenic call (Test System: Ames Salmonella typhimurium, Strain/Indicator: TA100, Metabolic Activation: Rat, Liver, S-9, Aroclor, Method: Plate incorporation) was “active; positive (weak response)” and the mutagenic call (Test System: Ames Salmonella typhimurium, Strain/Indicator: TA1535, Metabolic Activation: None, Method: Plate incorporation) was “inactive; negative”. The mutagenic call (Test System: Ames Salmonella typhimurium, Strain/Indicator: TA1535, Metabolic Activation: Rat, Liver, S-9, Aroclor, Method: Plate incorporation) was “active; positive (weak response)”, the mutagenic call (Test System: Ames Salmonella typhimurium, Strain/Indicator: TA1537, Metabolic Activation: None, Method: Plate incorporation) was “inactive; negative” and the mutagenic call (Test System: Ames Salmonella typhimurium, Strain/Indicator: TA1537, Metabolic Activation: Rat, Liver, S-9, Aroclor, Method: Plate incorporation) was “inactive; negative”. For the same compound, the mutagenic call (Test System: Ames Salmonella typhimurium, Strain/Indicator: TA1538, Metabolic Activation: None, Method: Plate incorporation) was “inactive; negative” and the mutagenic call (Test System: Ames Salmonella typhimurium, Strain/Indicator: TA1538, Metabolic Activation: Rat, Liver, S-9, Aroclor, Method: Plate incorporation) was “inactive; negative”.

`COc1ccc2c(CBr)cc(=O)oc2c1` was tested, and the mutagenic call [8] was “inactive; negative”, the mutagenic call [9] was “inactive; negative” and the mutagenic call [7] was “inactive; negative”. For the same compound, the mutagenic call [10] was “inactive; negative” and the mutagenic call (Test System: E. COLI, Strain/Indicator: WP2 UVRA, Metabolic Activation: NONE, Method: PREINCUBATION) was “inactive; negative”.

In the case of `Nc1ccc(N=Nc2ccc(N=Nc3c(S(=O)(=O)O)cc4c(c3N)C(=O)/C(=N\Nc3ccc(N=Nc5ccc(N)cc5N)cc3)C(S(=O)(=O)O)=C4)cc2)c(N)c1`, the mutagenic call [5] was “inactive; negative” and the mutagenic call [6] was “active; positive”.

With `O=C1c2ccccc2C(=O)c2cc(CO)ccc21` the mutagenic call [8] was “inactive; negative”, the mutagenic call [9] was “inactive; negative” and the mutagenic call [7] was “inactive; negative”. The mutagenic call [10] was “inactive; negative”, the mutagenic call (Test System: UDS RODENT HEPATOCYTES, Strain/Indicator: THY INCORP (NON-S-PHASE), Metabolic Activation: NONE, Method: AUTORADIOGRAPHY) was “inactive; negative” and the mutagenic call (Test System: UDS RODENT HEPATOCYTES, Strain/Indicator: THY INCORP (NON-S-PHASE), Metabolic Activation: PHENOBARBITAL, Method: AUTORADIOGRAPHY) was “active; positive”.

For `C=CCc1[c-]cccc1.C=CCc1[c-]cccc1.[Pt+2]`, the mutagenic call (Test System: AMES SALMONELLA TYPHIMURIUM, Strain/Indicator: TA92, Metabolic Activation: NONE, Method: STANDARD PLATE) was “inactive; negative”, the mutagenic call [1] was “inactive; negative” and the mutagenic call [3] was “inactive; negative”. The mutagenic call (Test System: AMES SALMONELLA TYPHIMURIUM, Strain/Indicator: TA2410, Metabolic Activation: NONE, Method: STANDARD PLATE) was “inactive; negative”.

With `CC(=O)ON(OCc1ccccc1)C(=O)c1ccccc1` the mutagenic call [1] was “active; positive”, the mutagenic call [3] was “active; positive” and the mutagenic call (Test System: AMES SALMONELLA TYPHIMURIUM, Strain/Indicator: TA100, Metabolic Activation: RAT, S-9, AROCLOR, Method: STANDARD PLATE) was “active; positive”.

For `O=C(ON(OCc1ccccc1)C(=O)c1ccccc1)c1ccccc1`, the mutagenic call [3] was “active; positive”.
